Reference: patent publication US20190389843A1, “PYRROLE mTORC INHIBITORS AND USES THEREOF” (Navitor Pharmaceuticals, Inc., priority 2016, published 2019)
Where a name gives a salt, the structure may show the parent alone.

How the values were obtained:
[1] = tested on: pS6K1 in MCF7 (measure of mTORC1 activity); assay: AlphaLISA Ultra pS6K1 assay; type: cell-based; conditions: MCF-7 cells, 2 hours compound incubation
Experimental: (§1) Assay Protocol: • 1. […] 12,000˜16,000 cells will be seeded in 36 μL medium per well. • 2. Change the culture medium with fresh medium and incubate for another 2 hours. • 3. Add 12 μL (4λ) compounds into the cell plate by HAMILTON. Final DMSO concentration is 0.5%. Incubate for 2 hours. • 4. Aspirate 38 μL by HAMILTON, 10 μL rest per well. • 5. Add 10 μL 2× lysis buffer using HAMILTON; total volume in wells is 20 μL. Allow cells to shake for 30 min. Cover plate by plastic foil and store plate at −80° C. up to analysis. • 6. […] Add 5 ul acceptor beads into assay plate and incubation for 2 hours • 8. Add 5 ul donor beads and incubation for 2 hours • 9. Count the plate by EnSpire Multimode Plate Reader

[2] = tested on: pAKT in MCF7 (measure of mTORC2 activity); assay: AlphaLISA Ultra pAKT assay; type: cell-based; conditions: MCF-7 cells, 2 hours compound incubation
Experimental: as §1, with “16,000˜20,000” for “12,000˜16,000”, “(4×)” for “(4λ)”

SMILES	IC50 ([1]; Homo sapiens, MCF7, 2 h) [nM]	IC50 ([2]; Homo sapiens, MCF7, 2 h) [nM]	IC50 [1] [nM]	IC50 [2] [nM]
Cc1c(CN2CCN(c3ncccc3Cl)CC2)cc(C(=O)N2CCN(c3cccc(Cl)c3)CC2)n1C [Example I-98, 1-({5-[4-(3-Chlorophenyl)piperazine-1-carbonyl]-1,2-dimethyl-1H-pyrrol-3-yl}methyl)-4-(3-chloropyridin-2-yl)piperazine]	10 to 1000	> 3000	–	–
Cc1c(CN2CCN(c3ccccc3Cl)CC2)cc(C(=O)N2CCN(c3ccc4[nH]ccc4c3)C[C@@H]2C)n1C [Example I-33, (S)-(4-(1H-indol-5-yl)-2-methylpiperazin-1-yl)(4-((4-(2-chlorophenyl)piperazin-1-yl)methyl)-1,5-dimethyl-1H-pyrrol-2-yl)methanone trifluoroacetate salt]	1000 to 3000	> 10000	–	–
Cc1c(CN2CCN(c3ncccc3Cl)CC2)cc(C(=O)N2CCN(c3cccc(C#N)c3)C[C@@H]2C)n1C [Example I-99, (S)-3-(4-(4-((4-(3-chloropyridin-2-yl)piperazin-1-yl)methyl)-1,5-dimethyl-1H-pyrrole-2-carbonyl)-3-methylpiperazin-1-yl)benzonitrile]	10 to 1000	> 3000	–	–
Cc1c(CN2CCCN(c3ccccc3Cl)CC2)cc(C(=O)N2CCN(c3ccc(F)cc3)C[C@@H]2C)n1C [Example I-47, (S)-(4-((4-(2-chlorophenyl)-1,4-diazepan-1-yl)methyl)-1,5-dimethyl-1H-pyrrol-2-yl)(4-(4-fluorophenyl)-2-methylpiperazin-1-yl)methanone]	1000 to 3000	> 10000	–	–
Cc1c(CN2CCN(c3ccccc3Cl)CC2)cc(C(=O)N2CCn3ncc(-c4ccccc4)c3C2)n1C [Example I-35, (4-((4-(2-Chlorophenyl)piperazin-1-yl)methyl)-1,5-dimethyl-1H-pyrrol-2-yl)(3-phenyl-6,7-dihydropyrazolo[1,5-a]pyrazin-5(4H)-yl)methanone]	1000 to 3000	> 10000	–	–
CC(c1cc(C(=O)N2CCN(c3ccccc3)CC2)n(C)c1)N1CCN(c2ccccc2Cl)CC1 (stereo not shown) [Example I-106, 1-(2-Chlorophenyl)-4-{1-[1-methyl-5-(4-phenylpiperazine-1-carbonyl)-1H-pyrrol-3-yl]ethyl}piperazine]	1000 to 3000	> 3000	–	–
Cn1cc(CN2CCN(c3ccccc3C#N)CC2)cc1C(=O)N1CCN(c2ccccc2)CC1 [Example I-124, 2-(4-((1-methyl-5-(4-phenylpiperazine-1-carbonyl)-1H-pyrrol-3-yl)methyl)piperazin-1-yl)benzonitrile]	10 to 1000	> 3000	–	–
CCCCn1cc(CN2CCN(c3ccccc3Cl)CC2)cc1C(=O)N1CCN(c2ccccc2)CC1 [Example I-146]	3000 to 10000	> 10000	–	–
Cc1c(CN2CCN(c3ncccc3Cl)CC2)cc(C(=O)N2CCN(c3ccccn3)CC2)n1C [Example I-44]	–	–	10 to 1000	> 3000
Cc1c(CN2CCN(c3ccccc3N=[N+]=[N-])CC2)cc(C(=O)N2CCN(c3ccccc3)C[C@@H]2C)n1C [Example I-83, (S)-(4-((4-(2-azidophenyl)piperazin-1-yl)methyl)-1,5-dimethyl-1H-pyrrol-2-yl)(2-methyl-4-phenylpiperazin-1-yl)methanone]	1000 to 3000	> 10000	–	–
CC(=O)OCCn1cc(CN2CCN(c3ccccc3Cl)CC2)cc1C(=O)N1CCN(c2ccccc2)CC1 [Example I-148]	1000 to 3000	> 10000	–	–
Cc1c(CN2CCN(c3ccccc3Cl)CC2)cc(C(=O)N2CCN(c3cccc(CCCN)c3)C[C@H]2C)n1C [Example I-27, (R)-(4-(3-(3-aminopropyl)phenyl)-2-methylpiperazin-1-yl)(4-((4-(2-chlorophenyl)piperazin-1-yl)methyl)-1,5-dimethyl-1H-pyrrol-2-yl)methanone trifluoroacetate salt]	1000 to 3000	> 10000	–	–
Cc1c(CN2CCN(c3ccccc3N=[N+]=[N-])CC2)cc(C(=O)N2CCN(c3ccccc3)CC2)n1C [Example I-97, (4-((4-(2-azidophenyl)piperazin-1-yl)methyl)-1,5-dimethyl-1H-pyrrol-2-yl)(4-phenylpiperazin-1-yl)methanone]	1000 to 3000	> 5000	–	–
Cc1c(CN2CCN(c3ncccc3Cl)CC2)cc(C(=O)N2CCN(c3ccc(F)cc3)CC2)n1C [Example I-80, (4-((4-(3-Chloropyridin-2-yl)piperazin-1-yl)methyl)-1,5-dimethyl-1H-pyrrol-2-yl)(4-(4-fluorophenyl)piperazin-1-yl)methanone]	10 to 1000	> 3000	–	–
Cc1c(CN2CCN(c3ccccc3Cl)CC2)cc(C(=O)N2CCN(c3ncccn3)C[C@@H]2C)n1C [Example I-74, (S)-(4-((4-(2-chlorophenyl)piperazin-1-yl)methyl)-1,5-dimethyl-1H-pyrrol-2-yl)(2-methyl-4-(pyrimidin-2-yl)piperazin-1-yl)methanone]	1000 to 3000	> 10000	–	–
Cc1c(CN2CCN(c3ccccc3C#N)CC2)cc(C(=O)N2CCCN(c3ccc(F)cc3)CC2)n1C [Example I-50, 2-(4-((5-(4-(4-Fluorophenyl)-1,4-diazepane-1-carbonyl)-1,2-dimethyl-1H-pyrrol-3-yl)methyl)piperazin-1-yl)benzonitrile]	1000 to 3000	> 10000	–	–
COCCn1cc(CN2CCN(c3ccccc3Cl)CC2)cc1C(=O)N1CCN(c2ccc(F)cc2)CC1 [Example I-140]	1000 to 3000	> 10000	–	–

Results, then the compound that gave them:

IC50 ([1]; Homo sapiens, MCF7, 2 h) [nM]	IC50 ([2]; Homo sapiens, MCF7, 2 h) [nM]	IC50 [1] [nM]	IC50 [2] [nM]	SMILES
10 to 1000	> 3000	–	–	Cc1c(CN2CCN(c3ccccc3Cl)CC2)cc(C(=O)N2CCN(c3cc(F)c(F)c(F)c3)CC2)n1C [Example I-111, (4-((4-(2-Chlorophenyl)piperazin-1-yl)methyl)-1,5-dimethyl-1H-pyrrol-2-yl)(4-(3,4,5-trifluorophenyl)piperazin-1-yl)methanone]
10 to 1000	> 1000	–	–	Cc1c(CN2CCN(c3ccccc3C#N)CC2)cc(C(=O)N2CCN(c3cc(Cl)ccn3)CC2)n1C [Example I-68]
10 to 1000	> 1000	–	–	Cc1c(CN2CCN(c3ccccc3C#N)CC2)cc(C(=O)N2CCN(c3cc(F)c(F)cc3C#N)CC2)n1C [Example I-4]
10 to 1000	> 3000	–	–	Cc1c(CN2CCN(c3ccccc3Cl)CC2)cc(C(=O)N2CCN(c3cccc(Cl)c3)CC2)n1C [Example I-118, (4-(3-Chlorophenyl)piperazin-1-yl)(4-((4-(2-chlorophenyl)piperazin-1-yl)methyl)-1,5-dimethyl-1H-pyrrol-2-yl)methanone]
10 to 1000	> 3000	–	–	Cc1c(CN2CCN(c3ccccc3Cl)CC2)cc(C(=O)N2CCN(c3cc(F)cc(F)c3)CC2)n1C [Example I-96, (4-((4-(2-chlorophenyl)piperazin-1-yl)methyl)-1,5-dimethyl-1H-pyrrol-2-yl)(4-(3,5-difluorophenyl)piperazin-1-yl)methanone]
10 to 1000	> 3000	–	–	Cc1ccnc(N2CCN(C(=O)c3cc(CN4CCN(c5ccccc5Cl)CC4)c(C)n3C)CC2)c1 [Example I-70]
10 to 1000	> 3000	–	–	Cc1nc(N2CCN(C(=O)c3cc(CN4CCN(c5ccccc5Cl)CC4)c(C#N)n3C)CC2)ccc1F [Example I-37]
10 to 1000	> 3000	–	–	Cc1ccnc(N2CCN(C(=O)c3cc(CN4CCN(c5ccccc5C#N)CC4)c(C)n3C)CC2)c1 [Example I-62]
10 to 1000	> 1000	–	–	Cc1c(CN2CCN(c3ccccc3Cl)CC2)cc(C(=O)N2CCN(c3cc(F)c(F)cc3C#N)CC2)n1C [Example I-1]
